Assay results reported in paper PMC5465072 (Scientific Reports, 2017).
“Also recorded” adds a separate entry of the source. Square brackets hold non-standard residues; d marks the D form. Ends that are not written are not given here. Peptide text beside a SMILES is read from it. Phe(4-Cl) = N[C@@H](Cc1ccc(Cl)cc1)C(=O)O

Experiments:
[1] = target: His6-PA488–735 / GST-CMG2_38–218 interaction (UniProt P13423+P58335); assay: biochemical; design: species or system Bacillus anthracis PA / human CMG2
[2] = target: His6-PA596–735 / GST-CMG2_38–218 interaction (Homo sapiens, UniProt P58335); assay: biochemical; type: biochemical, Bacillus anthracis PA / human CMG2
J774 cells = type: cell-based
CMG2_38–218 = CMG2_38–218 (Homo sapiens, UniProt P58335); assay: biochemical; type: binding
Chain of CMG2_38–218 (P58335 38-218): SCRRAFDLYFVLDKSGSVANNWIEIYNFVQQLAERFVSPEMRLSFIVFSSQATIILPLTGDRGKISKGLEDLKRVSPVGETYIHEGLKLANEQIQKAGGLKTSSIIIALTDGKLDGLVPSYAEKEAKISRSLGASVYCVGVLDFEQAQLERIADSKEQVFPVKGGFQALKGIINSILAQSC

Chain of His6-PA488–735 / GST-CMG2_38–218 interaction (P13423 517-764 limits assumed): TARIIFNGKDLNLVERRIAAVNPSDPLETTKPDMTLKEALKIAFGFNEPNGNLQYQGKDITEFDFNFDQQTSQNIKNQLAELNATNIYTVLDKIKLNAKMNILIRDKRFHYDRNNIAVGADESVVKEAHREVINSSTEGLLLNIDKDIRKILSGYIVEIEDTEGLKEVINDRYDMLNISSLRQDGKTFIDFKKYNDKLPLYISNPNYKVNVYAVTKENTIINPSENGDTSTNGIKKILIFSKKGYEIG
Chain of His6-PA488–735 / GST-CMG2_38–218 interaction (P58335 38-218 limits assumed): as the sequence (P58335 38-218) above
Chain of His6-PA596–735 / GST-CMG2_38–218 interaction (P58335 38-218 limits assumed): as the sequence (P58335 38-218) above

## FCRTL
[1]
  IC50 for disruption of the interaction of His6-PA488–735 and GST-CMG2_38–218: inactive

## HPCNAMF [HPCNAMF]
[1]
  IC50: 153 ± 9.3 µM
  fold loss of activity in PA/CMG2 ELISA over the parent peptide CMNHFPA: 3 fold

## CMNHFPA [CMNHFPA]
[2]
  IC50 for disruption of the interaction of His6-PA596–735 and GST-CMG2_38–218: not active; also recorded: lost all activity
[1]
  IC50: 49.8 ± 2.7 µM

## (4-Cl-F)CRTL
J774 cells
  protection of J774 cells from lethal toxin: No protective effect; also recorded: no such protection

## CLRFT [CLRFT]
[2]
  IC50: 71.3 ± 6.5 µM
[1]
  IC50: 77.1 ± 9.5 µM
CMG2_38–218
  Kd: 30.2 ± 1.2 µM

## CLRPT [CLRPT]
[1]
  IC50: 153 ± 2.9 µM

## H-CMNHAPA-OH [CMNHAPA]
[1]
  IC50: 522 ± 47.8 µM
  fold loss of activity in PA/CMG2 ELISA over the parent peptide CMNHFPA: 10 fold

## CC(C)C[C@H](NC(=O)[C@@H](N)CS)C(=O)N[C@@H](CCCNC(=N)N)C(=O)N[C@@H](Cc1ccc(Cl)cc1)C(=O)N[C@H](C(=O)O)[C@@H](C)O [CLR(4-Cl-F)T] (H-CLR[Phe(4-Cl)]T-OH)
J774 cells
  concentration that protects J774 cells from lethal toxin: ≥ 50 µM
